What was measured:
[1] = test system: Diet-induced obese (DIO) marmoset; assay: Two-week dosing and OGTT in diet-induced obese marmosets; format: in vivo
Description: Study on plasma glucose levels in marmosets. Mizagliflozin was evaluated in the Diet-induced obese (DIO) marmoset, a polygenic non-human primate model of obesity. Rimonabant, a canabinoid receptor (CB-1) antagonist that was marketed by Sanofi-Aventis for weight loss in obese patients, was administered at a maximal effective dose of 20 mg/kg twice daily as a positive control. Mizagliflozin was administered orally twice daily to DIO male marmosets (n=8/group) for 2 weeks at BID doses of 3 and 30 mg/kg/day (or only vehicle, aqueous hydroxypropylmethyl-cellulose 0.1%). Effects on body weight and body composition, and serum chemistry parameters were measured and glucose excursions during post-treatment OGTTs were also determined after administration of an oral loading dose of glucose (2.0 g/kg).

[2] = test system: healthy adult male volunteers; assay: Single dose study in humans, pharmacodynamic parameters after breakfast; format: in vivo, human
Description: Single dose study in humans. A single oral dose of 2 mg, 5 mg, 10 mg, 20 mg, 40 mg, 80 mg, and 160 mg of mizagliflozin were administered to healthy adult male volunteers by a placebo-controlled, randomized, double-blind method. The single dose was administered orally immediately before breakfast with approximately 200 mL of water after fasting for at least 10 hours. Pharmacodynamic effect parameters (blood glucose level, insulin, GLP-1, and gastric inhibitory polypeptide (GIP)) were measured. Concentrations at each time point were measured, and summary statistics and coefficient variation (CV) were calculated for AUC0-t; t was up to 6 hours postdose. The time points were: before administration and 0.5, 1, 1.5, 2, 3, 4, 5, and 6 hours after administration. Blood glucose level and insulin were measured to evaluate in an exploratory manner the inhibitory effect on postprandial hyperglycemia. GLP-1 and GIP were measured to evaluate in an exploratory manner the incretin secretory action.

[3] = single oral dose 2 mg before breakfast
[4] = single oral dose 5 mg before breakfast
[5] = single oral dose 10 mg before breakfast
[6] = single oral dose 20 mg before breakfast
[7] = single oral dose 40 mg before breakfast
[8] = single oral dose 80 mg before breakfast
[9] = single oral dose 160 mg before breakfast

`Cc1cc(OCCCNCC(C)(C)C(N)=O)ccc1Cc1c(O[C@@H]2O[C@H](CO)[C@@H](O)[C@H](O)[C@H]2O)n[nH]c1C(C)C` [mizagliflozin, 3-(3-{4-[3-(β-D-glucopyranosyloxy)-5-isopropyl-1H-pyrazol-4-ylmethyl-]-3-methylphenoxy}propylamino)-2,2-dimethylpropionamide] was tested, and the signs of diarrhea ([1]; 2 weeks dosing) was “No signs of diarrhea were observed”, the “effects on body weight, body composition (fat or lean mass) and serum chemistry parameters” value ([1]; 3 and 30 mg/kg, oral twice daily, 2 weeks) was “no significant effects” and the “glucose excursions during post-treatment OGTT” value ([1]; two weeks dosing, glucose 2.0 g/kg) was “blunting of the glucose excursions”. For the same compound, the “AUC 0-6 GIP” value [2, 3] was 818.5 pg·h/mL, the “AUC 0-6 GLP-1 (active)” value [2, 3] was 23.7 pmol·h/L and the “AUC 0-6 Insulin” value [2, 3] was 123.2 uU*h/ml. The “AUC 0-6 glucose” value [2, 3] was 628.3 mg·h/dL, the “GIP (peak)” value [2, 3] was 183.6 pg/mL and the “GLP-1 (active) (peak)” value [2, 3] was 6.4 pmol/L. For the same compound, the “Glucose (peak)” value [2, 3] was 128.7 mg/dL, the “Insulin (peak)” value [2, 3] was 40.38 uU/ml and the “Time (h) to peak, GIP” value [2, 3] was 4 h. For the same compound, the “Time (h) to peak, GLP-1 (active)” value [2, 3] was 0.5 h, the “Time (h) to peak, glucose” value [2, 3] was 1.5 h and the “Time (h) to peak, insulin” value [2, 3] was 1.5 h. The “AUC 0-6 GIP” value [2, 4] was 856.9 pg·h/mL, the “AUC 0-6 GLP-1 (active)” value [2, 4] was 28.5 pmol·h/L and the “AUC 0-6 Insulin” value [2, 4] was 140.7 uU*h/ml. The “AUC 0-6 glucose” value [2, 4] was 631.3 mg·h/dL, the “GIP (peak)” value [2, 4] was 194.5 pg/mL and the “GLP-1 (active) (peak)” value [2, 4] was 6.1 pmol/L. The “Glucose (peak)” value [2, 4] was 130.3 mg/dL, the “Insulin (peak)” value [2, 4] was 47.1 uU/ml and the “Time (h) to peak, GIP” value [2, 4] was 3 h. For the same compound, the “Time (h) to peak, GLP-1 (active)” value [2, 4] was 0.5 h, the “Time (h) to peak, glucose” value [2, 4] was 1 h and the “Time (h) to peak, insulin” value [2, 4] was 1.5 h. The “AUC 0-6 GIP” value [2, 5] was 945.7 pg·h/mL, the “AUC 0-6 GLP-1 (active)” value [2, 5] was 41.5 pmol·h/L and the “AUC 0-6 Insulin” value [2, 5] was 120.4 uU*h/ml. The “AUC 0-6 glucose” value [2, 5] was 661.9 mg·h/dL, the “GIP (peak)” value [2, 5] was 252.3 pg/mL and the “GLP-1 (active) (peak)” value [2, 5] was 8.7 pmol/L. The “Glucose (peak)” value [2, 5] was 143.8 mg/dL, the “Insulin (peak)” value [2, 5] was 39 uU/ml and the “Time (h) to peak, GIP” value [2, 5] was 4 h. For the same compound, the “Time (h) to peak, GLP-1 (active)” value [2, 5] was 0.5 h, the “Time (h) to peak, glucose” value [2, 5] was 1.5 h and the “Time (h) to peak, insulin” value [2, 5] was 2 h. For the same compound, the “AUC 0-6 GIP” value [2, 6] was 783.9 pg·h/mL, the “AUC 0-6 GLP-1 (active)” value [2, 6] was 55.8 pmol·h/L and the “AUC 0-6 Insulin” value [2, 6] was 89.7 uU*h/ml. The “AUC 0-6 glucose” value [2, 6] was 612.9 mg·h/dL, the “GIP (peak)” value [2, 6] was 216.7 pg/mL and the “GLP-1 (active) (peak)” value [2, 6] was 11.6 pmol/L. For the same compound, the “Glucose (peak)” value [2, 6] was 113.7 mg/dL, the “Insulin (peak)” value [2, 6] was 25.9 uU/ml and the “Time (h) to peak, GIP” value [2, 6] was 4 h. For the same compound, the “Time (h) to peak, GLP-1 (active)” value [2, 6] was 1.5 h, the “Time (h) to peak, glucose” value [2, 6] was 2 h and the “Time (h) to peak, insulin” value [2, 6] was 3 h. For the same compound, the “AUC 0-6 GIP” value [2, 7] was 591.4 pg·h/mL, the “AUC 0-6 GLP-1 (active)” value [2, 7] was 32.6 pmol·h/L and the “AUC 0-6 Insulin” value [2, 7] was 99.7 uU*h/ml. For the same compound, the “AUC 0-6 glucose” value [2, 7] was 629.1 mg·h/dL, the “GIP (peak)” value [2, 7] was 166.7 pg/mL and the “GLP-1 (active) (peak)” value [2, 7] was 7.5 pmol/L. The “Glucose (peak)” value [2, 7] was 130.3 mg/dL, the “Insulin (peak)” value [2, 7] was 33.8 uU/ml and the “Time (h) to peak, GIP” value [2, 7] was 4 h. For the same compound, the “Time (h) to peak, GLP-1 (active)” value [2, 7] was 0.5 h, the “Time (h) to peak, glucose” value [2, 7] was 1.5 h and the “Time (h) to peak, insulin” value [2, 7] was 1.5 h. The “AUC 0-6 GIP” value [2, 8] was 621.5 pg·h/mL, the “AUC 0-6 GLP-1 (active)” value [2, 8] was 24.1 pmol·h/L and the “AUC 0-6 Insulin” value [2, 8] was 70.9 uU*h/ml. The “AUC 0-6 glucose” value [2, 8] was 611.92 mg·h/dL, the “GIP (peak)” value [2, 8] was 161.6 pg/mL and the “GLP-1 (active) (peak)” value [2, 8] was 5.5 pmol/L. For the same compound, the “Glucose (peak)” value [2, 8] was 116 mg/dL, the “Insulin (peak)” value [2, 8] was 20.5 uU/ml and the “Time (h) to peak, GIP” value [2, 8] was 5 h. The “Time (h) to peak, GLP-1 (active)” value [2, 8] was 2 h, the “Time (h) to peak, glucose” value [2, 8] was 3 h and the “Time (h) to peak, insulin” value [2, 8] was 3 h. For the same compound, the “AUC 0-6 GIP” value [2, 9] was 445.5 pg·h/mL, the “AUC 0-6 GLP-1 (active)” value [2, 9] was 39.5 pmol·h/L and the “AUC 0-6 Insulin” value [2, 9] was 62.7 uU*h/ml. The “AUC 0-6 glucose” value [2, 9] was 606.2 mg·h/dL, the “GIP (peak)” value [2, 9] was 117.9 pg/mL and the “GLP-1 (active) (peak)” value [2, 9] was 7.9 pmol/L. The “Glucose (peak)” value [2, 9] was 106.5 mg/dL, the “Insulin (peak)” value [2, 9] was 16.2 uU/ml and the “Time (h) to peak, GIP” value [2, 9] was 5 h. The “Time (h) to peak, GLP-1 (active)” value [2, 9] was 2 h, the “Time (h) to peak, glucose” value [2, 9] was 3 h and the “Time (h) to peak, insulin” value [2, 9] was 3 h.
